Experimental data from patent US10294202B2, “Pyrrolidinones as herbicides” (FMC Corporation, priority 2013, dated 2019).

Assays:
barnyardgrass [1] = experiment: Test A pre-/postemergence herbicide test; assay type: in vivo, Echinochloa crus-galli
How it was run: (§1)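 Planted in loam–sand blend; treated the same day preemergence by directed soil spray, while separately grown plants at one- to two-leaf stage got postemergence spray. Compared visually with untreated controls after approximately 10 days; 100 means complete control.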

crabgrass, large = experiment: Test A pre-/postemergence herbicide test; assay type: in vivo, Digitaria sanguinalis
How it was run: as §1

giant foxtail = experiment: Test A pre-/postemergence herbicide test; assay type: in vivo, Setaria faberii
How it was run: as §1

morningglory = experiment: Test A pre-/postemergence herbicide test; assay type: in vivo, Ipomoea spp.
How it was run: as §1

pigweed = experiment: Test A pre-/postemergence herbicide test; assay type: in vivo, Amaranthus retroflexus
How it was run: as §1

velvetleaf = experiment: Test A pre-/postemergence herbicide test; assay type: in vivo, Abutilon theophrasti
How it was run: as §1

wheat = experiment: Test A pre-/postemergence herbicide test; assay type: in vivo, Triticum aestivum
How it was run: as §1

corn = experiment: Test A pre-/postemergence herbicide test; assay type: in vivo, Zea mays
How it was run: as §1

rice = experiment: Test B flooded paddy test; assay type: in vivo, Oryza sativa; conditions: Flood, scale of 0 to 100 where 0 is no effect and 100 is complete control
How it was run: (§2)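 2-leaf plants; flood 3 cm over soil; compound into paddy water; depth held. Greenhouse 13–15 d. Visual rating vs controls, 0 (no effect) to 100 (complete control); dash = not tested.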

sedge, umbrella = experiment: Test B flooded paddy test; assay type: in vivo, Cyperus difformis; conditions: Flood, scale of 0 to 100 where 0 is no effect and 100 is complete control
How it was run: as §2

ducksalad = experiment: Test B flooded paddy test; assay type: in vivo, Heteranthera limosa; conditions: Flood, scale of 0 to 100 where 0 is no effect and 100 is complete control
How it was run: as §2

barnyardgrass [2] = experiment: Test B flooded paddy test; assay type: in vivo, Echinochloa crus-galli; conditions: Flood, scale of 0 to 100 where 0 is no effect and 100 is complete control
How it was run: as §2

[3] = Postemergence, 1000 g ai/ha, 0 to 100 scale (0 no effect, 100 complete control)
[4] = preemergence, 1000 g ai/ha, 0 to 100 scale
[5] = Postemergence, 125 g ai/ha, 0 to 100 scale, 0 no effect, 100 complete control
[6] = Postemergence, 500 g ai/ha, 0 to 100 scale (0 no effect, 100 complete control)
[7] = Preemergence, 125 g ai/ha, visual rating on 0 to 100 scale (0 no effect, 100 complete control)
[8] = preemergence, 500 g ai/ha, 0 to 100 scale
[9] = Postemergence, 125 g ai/ha, 0 to 100 scale, 0 is no effect, 100 is complete control
[10] = Preemergence, 125 g ai/ha, 0 to 100 scale where 0 is no effect and 100 is complete control
[11] = preemergence, 500 g ai/ha, 0 to 100 scale, 0 is no effect and 100 is complete control

`O=C1NCC(c2ccc(F)c(F)c2)C1C(=O)Nc1cccc(F)c1Cl` (racemic) [Compound 108] was tested, and the “Plant response rating, Barnyardgrass” value (barnyardgrass [1]; [3]) was 90, the “Plant response rating, Barnyardgrass” value (barnyardgrass [1]; preemergence, 1000 g ai/ha, 0 to 100 scale (0 no effect, 100 complete control)) was 90 and the “Plant response rating, Crabgrass, Large” value (crabgrass, large; [3]) was 90. For the same compound, the “Plant response rating, Crabgrass, Large” value (crabgrass, large; [4]) was 90, the “Plant response rating, Foxtail, Giant” value (giant foxtail; [3]) was 80 and the “Plant response rating, Foxtail, Giant” value (giant foxtail; [4]) was 90. The “Plant response rating, Morningglory” value (morningglory; [3]) was 10, the “Plant response rating, Morningglory” value (morningglory; [4]) was 0 and the “Plant response rating, Pigweed” value (pigweed; [3]) was 0. For the same compound, the “Plant response rating, Pigweed” value (pigweed; [4]) was 0, the “Plant response rating, Velvetleaf” value (velvetleaf; [3]) was 10 and the “Plant response rating, Velvetleaf” value (velvetleaf; [4]) was 0. For the same compound, the “Plant response rating, Wheat” value (wheat; [3]) was 0, the “Plant response rating, Wheat” value (wheat; [4]) was 0 and the “Plant response rating, Corn” value (corn; [3]) was 0. For the same compound, the “Plant response rating, Corn” value (corn; [4]) was 0, the “Plant response rating, Rice” value (rice; 1000 g ai/ha) was 0 and the “Plant response rating, Sedge, Umbrella” value (sedge, umbrella; 1000 g ai/ha) was 0. The “Plant response rating, Ducksalad” value (ducksalad; 1000 g ai/ha) was 95 and the “Plant response rating, Barnyardgrass” value (barnyardgrass [2]; 1000 g ai/ha) was 50.
`COc1cccc(C2CNC(=O)C2C(=O)Nc2ccccc2F)c1` (racemic) [Compound 36] was tested, and the “Plant response rating, Barnyardgrass” value (barnyardgrass [1]; [5]) was 0, the “Plant response rating, Barnyardgrass” value (barnyardgrass [1]; [6]) was 80 and the “Barnyardgrass plant response rating” value (barnyardgrass [1]; [7]) was 40. The “Plant response rating, Barnyardgrass” value (barnyardgrass [1]; preemergence, 500 g ai/ha, 0 to 100 scale (0 no effect, 100 complete control)) was 80, the “Plant response rating, Crabgrass, Large” value (crabgrass, large; [5]) was 0 and the “Plant response rating, Crabgrass, Large” value (crabgrass, large; [6]) was 20. For the same compound, the “Crabgrass, Large plant response rating” value (crabgrass, large; [7]) was 20, the “Plant response rating, Crabgrass, Large” value (crabgrass, large; [8]) was 80 and the “Plant response rating, Foxtail, Giant” value (giant foxtail; [5]) was 0. The “Plant response rating, Foxtail, Giant” value (giant foxtail; [6]) was 20, the “Foxtail, Giant plant response rating” value (giant foxtail; [7]) was 20 and the “Plant response rating, Foxtail, Giant” value (giant foxtail; [8]) was 70. The “Plant response rating, Morningglory” value (morningglory; [5]) was 0, the “Plant response rating, Morningglory” value (morningglory; [6]) was 0 and the “Morningglory plant response rating” value (morningglory; [7]) was 0. For the same compound, the “Plant response rating, Morningglory” value (morningglory; [8]) was 0, the “Plant response rating, Pigweed” value (pigweed; [5]) was 0 and the “Plant response rating, Pigweed” value (pigweed; [6]) was 0. For the same compound, the “Pigweed plant response rating” value (pigweed; [7]) was 0, the “Plant response rating, Pigweed” value (pigweed; [8]) was 0 and the “Plant response rating, Velvetleaf” value (velvetleaf; [5]) was 0. For the same compound, the “Plant response rating, Velvetleaf” value (velvetleaf; [6]) was 0, the “Velvetleaf plant response rating” value (velvetleaf; [7]) was 0 and the “Plant response rating, Velvetleaf” value (velvetleaf; [8]) was 0. For the same compound, the “Plant response rating, Wheat” value (wheat; [5]) was 0, the “Plant response rating, Wheat” value (wheat; [6]) was 0 and the “Wheat plant response rating” value (wheat; [7]) was 0. The “Plant response rating, Wheat” value (wheat; [8]) was 20, the “Plant response rating, Corn” value (corn; [5]) was 0 and the “Plant response rating, Corn” value (corn; [6]) was 0. For the same compound, the “Corn plant response rating” value (corn; [7]) was 0, the “Plant response rating, Corn” value (corn; [8]) was 0 and the “Plant response rating, Rice” value (rice; 250 g ai/ha) was 0. For the same compound, the “Plant response rating, Sedge, Umbrella” value (sedge, umbrella; 250 g ai/ha) was 40, the “Plant response rating, Ducksalad” value (ducksalad; 250 g ai/ha) was 60 and the “Plant response rating, Barnyardgrass” value (barnyardgrass [2]; 250 g ai/ha) was 0.
With `O=C1NCC(c2ccc(C(F)(F)F)cc2F)C1C(=O)Nc1ccccc1C(F)(F)F` (racemic) [Compound 261] the “Plant response rating, Barnyardgrass” value (barnyardgrass [1]; [9]) was 0, the “Plant response rating, Barnyardgrass” value (barnyardgrass [1]; [6]) was 50 and the “Plant response rating, Barnyardgrass” value (barnyardgrass [1]; [10]) was 0. For the same compound, the “Plant response rating, Barnyardgrass” value (barnyardgrass [1]; [11]) was 0, the “Plant response rating, Crabgrass, Large” value (crabgrass, large; [9]) was 70 and the “Plant response rating, Crabgrass, Large” value (crabgrass, large; [6]) was 80. For the same compound, the “Plant response rating, Crabgrass, Large” value (crabgrass, large; [10]) was 80, the “Plant response rating, Crabgrass, Large” value (crabgrass, large; [11]) was 90 and the “Plant response rating, Foxtail, Giant” value (giant foxtail; [9]) was 0. For the same compound, the “Plant response rating, Foxtail, Giant” value (giant foxtail; [6]) was 60, the “Plant response rating, Foxtail, Giant” value (giant foxtail; [10]) was 10 and the “Plant response rating, Foxtail, Giant” value (giant foxtail; [11]) was 70. For the same compound, the “Plant response rating, Morningglory” value (morningglory; [9]) was 0, the “Plant response rating, Morningglory” value (morningglory; [6]) was 0 and the “Plant response rating, Morningglory” value (morningglory; [10]) was 0. For the same compound, the “Plant response rating, Morningglory” value (morningglory; [11]) was 0, the “Plant response rating, Pigweed” value (pigweed; [9]) was 0 and the “Plant response rating, Pigweed” value (pigweed; [6]) was 40. The “Plant response rating, Pigweed” value (pigweed; [10]) was 0, the “Plant response rating, Pigweed” value (pigweed; [11]) was 0 and the “Plant response rating, Velvetleaf” value (velvetleaf; [9]) was 0. The “Plant response rating, Velvetleaf” value (velvetleaf; [6]) was 30, the “Plant response rating, Velvetleaf” value (velvetleaf; [10]) was 0 and the “Plant response rating, Velvetleaf” value (velvetleaf; [11]) was 0. For the same compound, the “Plant response rating, Wheat” value (wheat; [9]) was 0, the “Plant response rating, Wheat” value (wheat; [6]) was 0 and the “Plant response rating, Wheat” value (wheat; [10]) was 0. The “Plant response rating, Wheat” value (wheat; [11]) was 0, the “Plant response rating, Corn” value (corn; [9]) was 0 and the “Plant response rating, Corn” value (corn; [6]) was 0. For the same compound, the “Plant response rating, Corn” value (corn; [10]) was 0, the “Plant response rating, Corn” value (corn; [11]) was 0 and the “Plant response rating, Rice” value (rice; 1000 g ai/ha) was 0. For the same compound, the “Plant response rating, Sedge, Umbrella” value (sedge, umbrella; 1000 g ai/ha) was 0, the “Plant response rating, Ducksalad” value (ducksalad; 1000 g ai/ha) was 90 and the “Plant response rating, Barnyardgrass” value (barnyardgrass [2]; 1000 g ai/ha) was 0.
